Data from patent US7541368B2, “Pyrazoles as inhibitors of tumor necrosis factor” (Aventis Pharmaceuticals Inc., priority 2003, dated 2009).

System: TNF-alpha release in THP-1 cells
Assay: LPS-induced TNF-alpha release in THP-1 cells
Type: cell-based
Settings: Homo sapiens, THP-1, LPS-stimulated THP-1 cells; read-out: 50% inhibition in the LPS-induced TNF-alpha release in THP-1 cells assay at concentrations within the range
Experimental: The effects of compounds on TNF-alpha production by lipopolysaccharide (LPS)-stimulated […] monocytes were examined as follows.
Undifferentiated THP-1 cells were maintained in RPMI 1640 with Glutamax I containing β-mercaptoethananol (50 μM) and foetal calf serum (FCS-10%) at densities of about 1×10^6 cells per ml. For incubations without and with test reagents, cells were seeded at the indicated densities under serum-deprived (1% FCS) conditions. Compounds were dissolved in dimethylsulfoxide (DMSO-100%) and incubated with the cells to give a fmal DMSO concentration of 0.3%. Control and untreated cell samples were incubated with DMSO (0.3%).
THP-1 cells (1×10 ^6 cells/ml, total volume 150 μl) in culture medium were incubated for 1 hour (5% CO2, 37° C.) with fresh medium containing compounds or vehicle (0.1-0.3% dimethylsulfoxide). LPS (20 μg/ml) was then added to the cells and the incubation continued for a fuirther 18 hours. Cell supernatants were removed into 96 well plates for storage at −20° C.
TNF-alpha concentrations in cell supernatants were quantified by sandwich ELISA. Briefly, ELISA plates were coated overnight with 2 μg/ml of mouse anti-human TNF-alpha antibody in bicarbonate buffer (pH 9.9). After washing the wells with wash buffer (0.05% (v/v) Tween in PBS)and blocking unoccupied sites (1% BSA in wash buffer), monocyte supernatant samples or human recombinant TNF-alpha standards were added into the corresponding wells of the ELISA plate at 1:10 dilution. Biotinylated rabbit polyclonal anti-human TNF-alpha antibody (3 μg/ml) was used as the second antibody and streptavidin-horseradish peroxidase was used as the detection antibody. The peroxidase substrate is 3,3′,5,5′-tetramethylbenzidine (TMB) in the presence of hydrogen peroxide.
TNFα concentrations in supernatants from control and LPS-stimulated monocyte incubations were calculated by interpolation from a standard (log/log) curve (0.125-16 ng/ml) fitted by Excel Fit using the Activity Base software. Compounds were tested within the concentration range of 1×10^−9M to 1×10^−6M.

| IC50 [nM] | Compound |
| --- | --- |
| 10 to 500 | COc1cccc(C(=O)N2CCC(Cc3cccc(NC(=O)Nc4cc(C(C)(C)C)nn4-c4ccc(C)cc4)c3)CC2)c1OC [Compound A21, 1-(5-tert-Butyl-2-p-tolyl-2H-pyrazol-3-yl)-3-{3-[1-(2,3-dimethoxy-benzoyl)-piperidin-4-ylmethyl]-phenyl}-urea] |
| 10 to 500 | Cc1ccc(-n2nc(C(C)(C)C)cc2NC(=O)Nc2ccc(CC3CCN(C(=O)c4ccoc4)CC3)cc2)cc1 [Compound A286, 1-(5-tert-Butyl-2-p-tolyl-2H-pyrazol-3-yl)-3-{4-[1-(furan-3-carbonyl)-piperidin-4-ylmethyl]-phenyl}-urea] |
| 10 to 500 | COc1ccc(C(=O)N2CCC(Cc3ccc(NC(=O)Nc4cc(C(C)(C)C)nn4-c4ccc(C)cc4)cc3)CC2)cc1OC [Compound A261, 1-(5-tert-Butyl-2-p-tolyl-2H-pyrazol-3-yl)-3-{4-[1-(3,4-dimethoxy-benzoyl)-piperidin-4-ylmethyl]-phenyl}-urea] |
| 10 to 500 | Cc1ccc(-n2nc(C(C)(C)C)cc2NC(=O)Nc2ccc(CC3CCN(C(=O)CCc4ccccc4)CC3)cc2)cc1 [Compound A354, 1-(5-tert-Butyl-2-p-tolyl-2H-pyrazol-3-yl)-3-{4-[1-(3-phenyl-propionyl)-piperidin-4-ylmethyl]-phenyl}-urea] |
| 10 to 500 | COc1cc(OC)c(C(=O)N2CCC(Cc3ccc(NC(=O)Nc4cc(C(C)(C)C)nn4-c4ccc(C)cc4)cc3)CC2)c(OC)c1 [Compound A215, 1-(5-tert-Butyl-2-p-tolyl-2H-pyrazol-3-yl)-3-{4-[1-(2,4,6-trimethoxy-benzoyl)-piperidin-4-ylmethyl]-phenyl}-urea] |
| 10 to 500 | COc1ccccc1CC(=O)N1CCC(Cc2cccc(NC(=O)Nc3cc(C(C)(C)C)nn3-c3ccc(C)cc3)c2)CC1 [Compound A50, 1-(5-tert-Butyl-2-p-tolyl-2H-pyrazol-3-yl)-3-(3-{1-[2-(2-methoxy-phenyl)-acetyl]-piperidin-4-ylmethyl}-phenyl)-urea] |
| 10 to 500 | COc1ccc(OC)c(CC(=O)N2CCC(Cc3cccc(NC(=O)Nc4cc(C(C)(C)C)nn4-c4ccc(C)cc4)c3)CC2)c1 [Compound A1646, 1-(5-tert-Butyl-2-p-tolyl-2H-pyrazol-3-yl)-3-(3-{1-[2-(2,5-dimethoxy-phenyl)-acetyl]-piperidin-4-ylmethyl}-phenyl)-urea] |
| 10 to 500 | Cc1ccc(-n2nc(C(C)(C)C)cc2NC(=O)Nc2ccc(CC3CCN(C(=O)Nc4ccc(N(C)C)cc4)CC3)cc2)cc1 [Compound A450, 4-{4-[3-(5-tert-Butyl-2-p-tolyl-2H-pyrazol-3-yl)-ureido]-benzyl}-piperidine-1-carboxylic acid (4-dimethylamino-phenyl)-amide] |
| 10 to 500 | Cc1ccc(-n2nc(C(C)(C)C)cc2NC(=O)Nc2cccc(CC3CCN(C(=O)c4ccc5cnccc5n4)CC3)c2)cc1 [Compound A7, 1-(5-tert-Butyl-2-p-tolyl-2H-pyrazol-3-yl)-3-{3-[1-([1,6]naphthyridine-2-carbonyl)-piperidin-4-ylmethyl]-phenyl}-urea] |
| 10 to 500 | Cc1ccc(-n2nc(C(C)(C)C)cc2NC(=O)Nc2ccc(CC3CCN(C(=O)c4ccc5cnccc5n4)CC3)cc2)cc1 [Compound A197, 1-(5-tert-Butyl-2-p-tolyl-2H-pyrazol-3-yl)-3-{4-[1-([1,6]naphthyridine-2-carbonyl)-piperidin-4-ylmethyl]-phenyl}-urea] |
| 10 to 500 | Cc1ccc(-n2nc(C(C)(C)C)cc2NC(=O)Nc2ccc(CC3CCN(C(=O)c4cc(C)oc4C)CC3)cc2)cc1 [Compound A222, 1-(5-tert-Butyl-2-p-tolyl-2H-pyrazol-3-yl)-3-{4-[1-(2,5-dimethyl-furan-3-carbonyl)-piperidin-4-ylmethyl]-phenyl}-urea] |
| 10 to 500 | Cc1ccc(-n2nc(C(C)(C)C)cc2NC(=O)Nc2ccc(CC3CCN(C(=O)c4ccc5ncsc5c4)CC3)cc2)cc1 [Compound A338, 1-{4-[1-(Benzothiazole-6-carbonyl)-piperidin-4-ylmethyl]-phenyl}-3-(5-tert-butyl-2-p-tolyl-2H-pyrazol-3-yl)-urea] |
| 10 to 500 | CC(=O)OCc1ccc(C(=O)N2CCC(Cc3cccc(NC(=O)Nc4cc(C(C)(C)C)nn4-c4ccc(C)cc4)c3)CC2)cc1 [Compound A148, Acetic acid 4-(4-{3-[3-(5-tert-butyl-2-p-tolyl-2H-pyrazol-3-yl)-ureido]-benzyl}-piperidine-1-carbonyl)-benzyl ester] |
| 10 to 500 | Cc1ccc(-n2nc(C(C)(C)C)cc2NC(=O)Nc2cccc(CC3CCN(C(=O)c4occc4C)CC3)c2)cc1 [Compound A95, 1-(5-tert-Butyl-2-p-tolyl-2H-pyrazol-3-yl)-3-{3-[1-(3-methyl-furan-2-carbonyl)-piperidin-4-ylmethyl]-phenyl}-urea] |
| 10 to 500 | Cc1ccc(-n2nc(C(C)(C)C)cc2NC(=O)Nc2ccc(CC3CCN(C(=O)c4ccc(CO)cc4)CC3)cc2)cc1 [Compound A315, 1-(5-tert-Butyl-2-p-tolyl-2H-pyrazol-3-yl)-3-{4-[1-(4-hydroxymethyl-benzoyl)-piperidin-4-ylmethyl]-phenyl}-urea] |
| 10 to 500 | Cc1ccc(-n2nc(C(C)(C)C)cc2NC(=O)Nc2ccc(CC3CCN(C(=O)c4ccc(N)nc4)CC3)cc2)cc1 [Compound A331A, 1-{4-[1-(6-Amino-pyridine-3-carbonyl)-piperidin-4-ylmethyl]-phenyl}-3-(5-tert-butyl-2-p-tolyl-2H-pyrazol-3-yl)-urea] |
| 10 to 500 | Cc1ccc(-n2nc(C(C)(C)C)cc2NC(=O)Nc2cccc(CC3CCN(C(=O)c4cccnc4N)CC3)c2)cc1 [Compound A39, 1-{3-[1-(2-Amino-pyridine-3-carbonyl)-piperidin-4-ylmethyl]-phenyl}-3-(5-tert-butyl-2-p-tolyl-2H-pyrazol-3-yl)-urea] |
| 10 to 500 | Cc1ccc(-n2nc(C(C)(C)C)cc2NC(=O)Nc2cccc(CC3CCN(C(=O)c4ccc(N)nc4)CC3)c2)cc1 [Compound A144, 1-{3-[1-(6-Amino-pyridine-3-carbonyl)-piperidin-4-ylmethyl]-phenyl}-3-(5-tert-butyl-2-p-tolyl-2H-pyrazol-3-yl)-urea] |
| 10 to 500 | Cc1ccc(-n2nc(C(C)(C)C)cc2NC(=O)Nc2ccc(CC3CCN(C(=O)c4cc5cnccc5nc4C)CC3)cc2)cc1 [Compound A243, 1-(5-tert-Butyl-2-p-tolyl-2H-pyrazol-3-yl)-3-{4-[1-(2-methyl-[1,6]naphthyridine-3-carbonyl)-piperidin-4-ylmethyl]-phenyl}-urea] |
| 10 to 500 | COc1ccc(OCC(=O)N2CCC(Cc3cccc(NC(=O)Nc4cc(C(C)(C)C)nn4-c4ccc(C)cc4)c3)CC2)cc1 [Compound A121, 1-(5-tert-Butyl-2-p-tolyl-2H-pyrazol-3-yl)-3-(3-{1-[2-(4-methoxy-phenoxy)-acetyl]-piperidin-4-ylmethyl}-phenyl)-urea] |
| 10 to 500 | COc1cc(OC)c(C(=O)N2CCC(Cc3cccc(NC(=O)Nc4cc(C(C)(C)C)nn4-c4ccc(C)cc4)c3)CC2)c(OC)c1 [Compound A24, 1-(5-tert-Butyl-2-p-tolyl-2H-pyrazol-3-yl)-3-{3-[1-(2,4,6-trimethoxy-benzoyl)-piperidin-4-ylmethyl]-phenyl}-urea] |
| 10 to 500 | Cc1ccc(-n2nc(C(C)(C)C)cc2NC(=O)Nc2cccc(CC3CCN(C(=O)c4cnccc4C(F)(F)F)CC3)c2)cc1 [Compound A126, 1-(5-tert-Butyl-2-p-tolyl-2H-pyrazol-3-yl)-3-{3-[1-(4-trifluoromethyl-pyridine-3-carbonyl)-piperidin-4-ylmethyl]-phenyl}-urea] |
| 10 to 500 | Cc1ccc(-n2nc(C(C)(C)C)cc2NC(=O)Nc2ccc(CC3CCN(C(=O)c4ccc(Cl)nc4)CC3)cc2)cc1 [Compound A332, 1-(5-tert-Butyl-2-p-tolyl-2H-pyrazol-3-yl)-3-{4-[1-(6-chloro-pyridine-3-carbonyl)-piperidin-4-ylmethyl]-phenyl}-urea] |

| Compound | IC50 [nM] |
| --- | --- |
| COc1ccccc1CC(=O)N1C2CCC1CC(Cc1ccc(NC(=O)Nc3cc(C(C)(C)C)nn3-c3ccc(C)cc3)cc1)C2 (centres unmarked) [Compound A1404, 1-(5-tert-Butyl-2-p-tolyl-2H-pyrazol-3-yl)-3-(4-{8-[2-(2-methoxy-phenyl)-acetyl]-8-aza-bicyclo[3.2.1]oct-3-ylmethyl}-phenyl)-urea] | 10 to 500 |
| COc1cccc(CC(=O)N2C3CCC2CC(Cc2ccc(NC(=O)Nc4cc(C(C)(C)C)nn4-c4ccc(C)cc4)cc2)C3)c1OC (centres unmarked) [Compound A1312, 1-(5-tert-Butyl-2-p-tolyl-2H-pyrazol-3-yl)-3-(4-{8-[2-(2,3-dimethoxy-phenyl)-acetyl]-8-aza-bicyclo[3.2.1]oct-3-ylmethyl}-phenyl)-urea] | 10 to 500 |
| Cc1ccc(-n2nc(C(C)(C)C)cc2NC(=O)Nc2ccc(CC3CC4CCC(C3)N4C(=O)Cc3ccc(F)cc3F)cc2)cc1 (centres unmarked) [Compound A1364, 1-(5-tert-Butyl-2-p-tolyl-2H-pyrazol-3-yl)-3-(4-{8-[2-(2,4-difluoro-phenyl)-acetyl]-8-aza-bicyclo[3.2.1]oct-3-ylmethyl}-phenyl)-urea] | 10 to 500 |
